For test [1], the target named is cyclophilin A (Homo sapiens, UniProt P62937). Nature of the test: Cyclophilin A TR-FRET competitive binding assay. The note with it: IC50 ranges; competition with CsA-Cy5 for His-tagged CypA, two-hour incubation; read-out: TR-FRET. The method, then: Cyclophilin A TR-FRET Competitive Binding Assay
Inhibitor potency was measured using a competitive binding assay with a time-resolved fluorescence resonance energy transfer (TR-FRET) readout. […] An IC50 value was calculated using a four-parameter logistic fit.
On the technique in general: TR-FRET usually uses a lanthanide donor and a delayed reading to cut background.

In test [2] the test system is HCV replicon (Replicon 1a). Nature of the test: anti-HCV activity in Huh-7 cell line harboring a HCV replicon (Replicon 1a). Format: cell-based. The note with it: human hepatoma Huh-7 HCV replicon cells, 3 days, luciferase readout; for inhibition at 1 µM: Hepatitis C virus, Huh-7, 72 h, read-out: Replicon 1a % inhibition at 1 μM, 1 μM.

Chain of cyclophilin A (P62937 whole entry, species assumed): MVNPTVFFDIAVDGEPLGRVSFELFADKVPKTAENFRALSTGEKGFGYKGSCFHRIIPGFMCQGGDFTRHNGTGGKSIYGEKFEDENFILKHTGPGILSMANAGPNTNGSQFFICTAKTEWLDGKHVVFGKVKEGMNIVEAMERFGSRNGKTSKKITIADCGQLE

Consider `COC1CCC=Cc2cccc(c2)C2CCCCN2C(=O)C2CCCN(N2)C(=O)C(C)NC(=O)C(C(C)C)NC(=O)C1C` (single isomer, unassigned) [Compound 29], for which the IC50 in test [1] was in the range of 1000 to 10000 nM. Also, in test [2], the “Replicon 1a % inhibition at 1 μM” value stood at 28%. Consider `COC1CCC=Cc2cccc(c2)C2CCCCN2C(=O)C2CCCN(N2)C(=O)C(C)NC(=O)C(C(C)C)NC(=O)C1C` (single isomer, unassigned) [Compound 30], for which the IC50 in test [1] was below 100 nM. Besides, in test [2], the “Replicon 1a % inhibition at 1 μM” value is on record as 73%. As a reminder, the inhibition is the share of the control response that was lost under treatment. As for `CO[C@@H]1/C=C/c2cc3cc(ccc3cn2)[C@@H](C)OC(=O)[C@]2(C)CCCN(N2)C(=O)[C@H](C)NC(=O)[C@H](C(C)C)NC(=O)[C@@H]1C` (single isomer, unassigned) [Compound 34], the IC50 in test [1] was below 100 nM. In addition, in test [2], the inhibition at 1 µM stood at 92%. As for `CC(C)[C@@H]1NC(=O)C(C)(C)COc2cc3cc(ccc3cn2)[C@@H](C)OC(=O)[C@@H]2CCCN(N2)C(=O)[C@H](C)NC1=O` (single isomer, unassigned) [Compound 68], the IC50 in test [1] was below 100 nM. In test [2], the inhibition at 1 µM amounted to 91%. As for `CC(C)[C@@H]1NC(=O)C(C)(C(C)O)/C=C/c2ccc3ccc(nc3c2)[C@@H](C)OC(=O)[C@@H]2CCCN(N2)C(=O)[C@H](C)NC1=O` (single isomer, unassigned) [Compound 87], the IC50 in test [1] is below 100 nM. On to `COCCC1(C)/C=C/c2ccc3ccc(nc3c2)[C@@H](C)OC(=O)[C@@H]2CCCN(N2)C(=O)[C@H](C)NC(=O)[C@H](C(C)C)NC1=O` (single isomer, unassigned) [Compound 102], for which, in test [1], the IC50 was below 100 nM. For the same molecule, the inhibition at 1 µM in test [2] came to 100%. Turning to `COCCC1(C)/C=C/c2ccc3ccc(nc3c2)[C@@H](C)OC(=O)[C@@H]2CCCN(N2)C(=O)[C@H](C)NC(=O)[C@H](C(C)C)NC1=O` (single isomer, unassigned) [Compound 103], the IC50 in test [1] is below 100 nM. Moreover, the inhibition at 1 µM in test [2] is 100%. For `CC(C)[C@@H]1NC(=O)C(C)(C)/C=C/c2ccc3ccc(nc3c2)[C@@H](C)OC(=O)[C@@H]2CCCN(N2)C(=O)[C@H](CC2CCOCC2)NC1=O` (single isomer, unassigned) [Compound 112], the IC50 in test [1] is below 100 nM. The inhibition at 1 µM in test [2] turned out to be 96%. Take `CC(C)[C@@H]1NC(=O)C(C)(C)/C=C/c2ccc3ccc(nc3c2)[C@@H](C)OC(=O)[C@@H]2CCCN(N2)C(=O)C(CC2CCOCC2)NC1=O` (single isomer, unassigned) [Compound 113]: in test [1], the IC50 was 101 to 1000 nM. In test [2], the inhibition at 1 µM turned out to be 13%. For the molecule `COC[C@@H]1NC(=O)[C@H](C(C)C)NC(=O)C(C)(C)/C=C/c2ccc3ccc(nc3c2)[C@@H](C)OC(=O)[C@@H]2CCCN(N2)C1=O` (single isomer, unassigned) [Compound 117], the IC50 in test [1] is below 100 nM. In test [2], the inhibition at 1 µM was found to be 100%. `CC(C)[C@@H]1NC(=O)C(C)(C)/C=C/c2ccc3ccc(nc3c2)[C@H]2CCCN2C(=O)[C@@H]2CCCN(N2)C(=O)[C@H](C)NC1=O` (single isomer, unassigned) [Compound 150]: the IC50 in test [1] was below 100 nM. The inhibition at 1 µM in test [2] came out at 95%.

As for `CC(C)[C@@H]1NC(=O)C(C)(C)/C=C/c2ccc3ccc(nc3c2)[C@@H]2CCCN2C(=O)[C@@H]2CCCN(N2)C(=O)[C@H](C)NC1=O` (single isomer, unassigned) [Compound 151], the IC50 in test [1] was 1000 to 10000 nM. Also, the inhibition at 1 µM in test [2] is 0%. As for `CC(C)[C@@H]1NC(=O)[C@H](C)[C@H](O)CC/C=C/c2cccc(c2)[C@@H](C)NC(=O)[C@@H]2CCCN(N2)C(=O)[C@H](C)NC1=O` [Compound 1, (E)-(2R,5S,11S,14S,17R,18R)-18-Hydroxy-14-isopropyl-2,11,17-trimethyl-3,9,12,15,28-pentaaza-tricyclo[21.3.1.1*5,9*]octacosa-1(26),21,23(27),24-tetraene-4,10,13,16-tetraone], the IC50 in test [1] is below 100 nM. In addition, the inhibition at 1 µM in test [2] was determined as 32%. Turning to `CC(C)[C@@H]1NC(=O)[C@H](C)[C@H](OCC(F)(F)F)CC/C=C/c2cccc(c2)[C@@H](C)NC(=O)[C@@H]2CCCN(N2)C(=O)[C@H](C)NC1=O` [Compound 2, (E)-(2R,5S,11 S,14S,17R,18R)-14-Isopropyl-2,11,17-trimethyl-18-(2,2,2-trifluoro-ethoxy)-3,9,12,15,28-pentaaza-tricyclo[21.3.1.1*5,9*]octacosa-1(26),21,23(27),24-tetraene-4,10,13,16-tetraone], in test [1], the IC50 was in the range of 101 to 1000 nM. For the same molecule, in test [2], the inhibition at 1 µM amounted to 63%. Take `CC(C)[C@@H]1NC(=O)[C@H](C)[C@H](O)CCCCc2cccc(c2)[C@@H](C)NC(=O)[C@@H]2CCCN(N2)C(=O)[C@H](C)NC1=O` [Compound 3, (2R,5S,11S,14S,17R,18R)-18-Hydroxy-14-isopropyl-2,11,17-trimethyl-3,9,12,15,28-pentaaza-tricyclo[21.3.1.1*5,9*]octacosa-1(26),23(27),24-triene-4,10,13,16-tetraone]: the IC50 in test [1] is below 100 nM. Besides, in test [2], the inhibition at 1 µM was determined as 44%. Turning to `CC(C)[C@@H]1NC(=O)CCC(C)(C)C/C=C/c2cccc(c2)[C@@H](C)NC(=O)[C@@H]2CCCN(N2)C(=O)[C@H](C)NC1=O` [Compound 4], in test [1], the IC50 lay within 101 to 1000 nM. For the same molecule, in test [2], the inhibition at 1 µM was 58%. Consider `CO[C@@H]1/C=C/c2cc3cc(ccc3cn2)[C@@H](C)NC(=O)[C@@H]2CCCN(N2)C(=O)[C@H](C)NC(=O)[C@H](C(C)C)NC(=O)[C@@H]1C` [Compound 5], for which, in test [1], the IC50 was below 100 nM. Moreover, the inhibition at 1 µM in test [2] was 80%. On to `CC(C)[C@@H]1NC(=O)CCCc2cc3cc(ccc3cn2)[C@@H](C)OC(=O)[C@@H]2CCCN(N2)C(=O)[C@H](C)NC1=O` [Compound 10], for which, in test [2], the inhibition at 1 µM is 28%. Still for that read-out and setting: as for `CC(C)[C@@H]1NC(=O)/C=C\c2cc3cc(ccc3cn2)[C@@H](C)NC(=O)[C@@H]2CCCN(N2)C(=O)[C@H](C)NC1=O` [Compound 12], the figure is 0%. Consider `CC(C)[C@@H]1NC(=O)C/C=C/c2ccc3ccc(nc3c2)[C@@H](C)OC(=O)[C@@H]2CCCN(N2)C(=O)[C@H](C)NC1=O` [Compound 24], for which, in test [2], the inhibition at 1 µM stood at 99%. Take `CC(C)[C@@H]1NC(=O)[C@@H]([C@H](C)O)/C=C/c2ccc3ccc(nc3c2)[C@@H](C)OC(=O)[C@@H]2CCCN(N2)C(=O)[C@H](C)NC1=O` [Compound 31]: the inhibition at 1 µM in test [2] turned out to be 98%. With `C[C@@H]1NC(=O)[C@H](CCN=[N+]=[N-])NC(=O)C(C)(C)/C=C/c2cc3cc(ccc3cn2)[C@@H](C)OC(=O)[C@@H]2CCCN(N2)C1=O` [Compound 49], the IC50 in test [1] was below 100 nM. With `C#CC[C@@H]1NC(=O)C(C)(C)/C=C/c2cc3cc(ccc3cn2)[C@@H](C)OC(=O)[C@@H]2CCCN(N2)C(=O)[C@H](C)NC1=O` [Compound 51], in test [1], the IC50 is below 100 nM. As to `CC(C)[C@@H]1NC(=O)C2(/C=C/c3cc4cc(ccc4cn3)[C@@H](C)OC(=O)[C@@H]3CCCN(N3)C(=O)[C@H](C)NC1=O)CC2` [Compound 58], the IC50 in test [1] was below 100 nM. On the same count and under the same terms, with `CC(C)[C@@H]1NC(=O)C2(/C=C/c3cc4cc(ccc4cn3)[C@@H](C)OC(=O)[C@@H]3CCCN(N3)C(=O)[C@H](C)NC1=O)CCOCC2` [Compound 59] the figure was below 100 nM. As to `CC(C)[C@@H]1NC(=O)CCC/C=C/c2cc3cc(ccc3cn2)[C@@H](C)OC(=O)[C@@H]2CCCN(N2)C(=O)[C@H](C)NC1=O` [Compound 61], the inhibition at 1 µM in test [2] turned out to be 72%. For the molecule `CC(C)[C@@H]1NC(=O)CCCC/C=C/c2cc3cc(ccc3cn2)[C@@H](C)OC(=O)[C@@H]2CCCN(N2)C(=O)[C@H](C)NC1=O` [Compound 63], the inhibition at 1 µM in test [2] was found to be 80%. Consider `CC(C)[C@@H]1NC(=O)C(C)(C)/C=C/c2cc3cc(cnc3cn2)[C@@H](C)OC(=O)[C@@H]2CCCN(N2)C(=O)[C@H](C)NC1=O` [Compound 66], for which the IC50 in test [1] is below 100 nM.

Consider `CC(C)[C@@H]1NC(=O)CCCc2ccc3ccc(cc3c2)[C@@H](C)OC(=O)[C@@H]2CCCN(N2)C(=O)[C@H](C)NC1=O` [Compound 71], for which, in test [1], the IC50 lay within 101 to 1000 nM. Consider `CC(C)[C@@H]1NC(=O)C(C)(C)CCc2cc3cc(ccc3cn2)[C@@H](C)OC(=O)[C@@H]2CCCN(N2)C(=O)[C@H](C)NC1=O` [Compound 74], for which, in test [2], the inhibition at 1 µM turned out to be 95%.

For `CC(C)[C@@H]1NC(=O)C2(/C=C/c3ccc4ccc(nc4c3)[C@@H](C)OC(=O)[C@@H]3CCCN(N3)C(=O)[C@H](C)NC1=O)COC(C)(C)OC2` [Compound 75], the IC50 in test [1] is below 100 nM. Regarding `CC(C)[C@@H]1NC(=O)C(C)(C2CCOC2)/C=C/c2ccc3ccc(nc3c2)[C@@H](C)OC(=O)[C@@H]2CCCN(N2)C(=O)[C@H](C)NC1=O` (stereo partly drawn) [Compound 116], the IC50 in test [1] is below 100 nM. For the molecule `CC(C)[C@@H]1NC(=O)C2(/C=C/c3ccc4ccc(nc4c3)[C@@H](C)OC(=O)[C@@H]3CCCN(N3)C(=O)[C@H](C)NC1=O)CCC(F)(F)CC2` [Compound 121], in test [1], the IC50 was below 100 nM.

As to `CC(C)[C@@H]1NC(=O)C2(/C=C/c3ccc4ccc(nc4c3)[C@@H](C)OC(=O)[C@@H]3CCCN(N3)C(=O)[C@H](C)NC1=O)CCN(Cc1ccccc1)CC2` [Compound 128], in test [1], the IC50 is below 100 nM.

As for `COc1cc2nc3cc(ccc13)/C=C/C(C)(C)C(=O)N[C@@H](C(C)C)C(=O)N[C@@H](C)C(=O)N1CCC[C@H](N1)C(=O)O[C@@H]2C` [Compound 139], the IC50 in test [1] is below 100 nM.

On to `CC(C)[C@@H]1NC(=O)C(C)(C)/C=C/c2ccc3c(C#N)cc(nc3c2)[C@@H](C)OC(=O)[C@@H]2CCCN(N2)C(=O)[C@H](C)NC1=O` [Compound 140], for which the IC50 in test [1] was in the range of 101 to 1000 nM.

For the molecule `CC(C)[C@@H]1NC(=O)C([C@H](C)O)/C=C/c2ccc3ccc(cc3c2)[C@@H](C)OC(=O)[C@@H]2CCCN(N2)C(=O)[C@@H](C)NC1=O` (stereo partly drawn) [Compound 145], the IC50 in test [1] is below 100 nM. Turning to `Cc1c2ccc3c(Cl)cc(nc13)[C@@H](C)OC(=O)[C@@H]1CCCN(N1)C(=O)[C@H](C)NC(=O)[C@H](C(C)C)NC(=O)C(C)(C)/C=C/2` [Compound 164], in test [1], the IC50 was below 100 nM.

Source of the values: patent US9512175B2, “Macrocyclic inhibitors of flaviviridae viruses” (Gilead Sciences, Inc., priority 2012, dated 2016).
